{"source": "patent EP0104826A2", "about": "“Immunomodulator and method of use for immunomodulation” (FUJISAWA PHARMACEUTICAL CO., LTD., priority 1982, dated 1984)", "key": {"[1]": {"system": "antibody forming capacities", "experiment": "Antibody forming capacity (PFC-SRBC) in mice immunosuppressed with mitomycin C", "type": "in vivo", "procedure": "Female BDF1 (8 weeks in age) mice were injected intraperitoneally with mitomycin C (1 mg/kg) from four days before immuization with 5 x 10^8 SRBC, every day for three days. Samples also were administered to mice intraperitoneally from four days before immunization, every day for five days.\nAt day 9, mice were sacrificed and the number of direct plaque forming cells per spleen was measured by using Cunningham modification method."}, "[2]": {"system": "Sarcoma-180 (S-180) cells", "experiment": "Murine transplantable tumor, total tumor cell packed volume in ascites", "type": "in vivo", "conditions": "mice", "procedure": "Sarcoma-180 (S-180) cells (1 x 10^6 cells) were inoculated to ICR (female, 8 weeks old) mice intraperitoneally and then after, swainsonine was administered intraperitoneally daily for 5 days. The total tumor cell packed volume in ascites was measured 15 days after tumor cell inoculation."}, "[3]": {"system": "antibody forming capacities", "experiment": "Antibody forming capacity (PFC-SRBC) in Sarcoma 180 tumor bearing mice", "type": "in vivo", "procedure": "Female ICR(8 weeks in age) mice were intraperitoneally inoculated with 0.2 ml of Sarcoma 180 suspension (5 x 10^6 cells/ml)at day 0. Samples were administered to mice intraperitoneally from 7 days before immunization with 5 x 10^8 SRBC, every day for five days.\nThe number of direct plaque forming cells per spleen was measured five days after immunization."}, "thymus": {"system": "thymus", "experiment": "Dexamethasone-induced thymus atrophy in mice", "type": "in vivo", "conditions": "for Thymus weight: Dexamethasone treatment Yes, n=5", "procedure": "Five week-old ddY mice(male) were used. Samples were given subcutaneously twice per day from day 0 to day 2 of the experiment. Five hours after first medication on day 0, mice were supplied with drinking water containing 1 ug/ml of dexamethasone.\nAt day 2, the weight of thymus of the treated mice was compared with that of the nontreated controls."}, "[4]": {"system": "antibody forming capacities against SRBC", "experiment": "Antibody forming capacity (direct plaque-forming cells against SRBC) in mice injected with immunosuppressive factor", "type": "in vivo", "procedure": "Splenic lymphocytes producing antibody against sheep blood red cells (SRBC) were quantitated using Cunningham modification (Cunningham, A.J., Nature, 207, 1106-1107, 1965) of the Jerne plaque assay.\n[…] Samples were administered to mice intraperitoneally four times before immunization. Mice were sacrificed 4 days after the injection of SRBC, and the number of direct plaque-forming cells per spleen was determined."}, "[5]": {"system": "antibody forming capacities", "experiment": "Antibody forming capacity (PFC-SRBC) in mice immunosuppressed with cyclophosphamide", "type": "in vivo", "procedure": "Female BDF1 (8 weeks in age) mice were injected intraperitoneally with cyclophosphamide (22.5 mg/kg) 4 days before immunization with 5 x 10^8 SRBC. Samples were administered to mice i.p. from four days before immunization, every day for five days.\nMouse splenic lymphocytes producing antibody against SRBC were quantitated by using Cunningham modification method described previously."}, "[6]": {"system": "mixed lymphocyte culture (MLC)-stimulated spleen cells", "experiment": "Mixed lymphocyte culture (MLC), 3H-thymidine uptake", "type": "cell-based, mice", "procedure": "Female C57BL/6 mice, 8 weeks in age, and female BALB/c mice, 8 weeks in age were sacrificed, spleens were aseptically removed and single cell suspensions were prepared as sources of stimulating and responding cells, respectively. Prior to culture, the stimulator cells were treated with 200 µg/ml of mitomycin C for 45 minutes at 37°C, followed by three washes with PBS.\nThey were established at a final concentration of 0.2 x 10^6 cells/0.2 ml of reaction mixture and cultured in microtiteration plate (Falcon, No.3040) using RPMI medium supplemented with 10% fetal bovine serum and 5 x 10^-5M 2- mercaptoethanol. The culture was continued for 120 hours and pulse-labeled with ^3H-thymidine for 24 hours before the termination of incubation. The cells were collected and radioactivity was counted."}, "[7]": {"conditions": "BDF1 mice, Swainsonine 100 mg/kg i.p. alone"}}}
{"smiles": "O[C@H]1[C@H]2[C@H](O)CCCN2C[C@H]1O", "note": "[Swainsonine]", "values": [{"measurement": "PFC-SRBC/spleen (average number of 5 mice/group)", "setting": "[1]; [7]", "value": "21.66 x 10^4 PFC-SRBC/spleen"}, {"measurement": "PFC-SRBC/spleen (average number of 5 mice/group)", "setting": "[1]; Mitomycin C (1.0 mg/kg) + Swainsonine 3.7 mg/kg i.p.", "value": "21.31 x 10^4 PFC-SRBC/spleen"}, {"measurement": "PFC-SRBC/spleen (average number of 5 mice/group)", "setting": "[1]; Mitomycin C (1.0 mg/kg) + Swainsonine 11 mg/kg i.p.", "value": "20.90 x 10^4 PFC-SRBC/spleen"}, {"measurement": "PFC-SRBC/spleen (average number of 5 mice/group)", "setting": "[1]; Mitomycin C (1.0 mg/kg) + Swainsonine 33 mg/kg i.p.", "value": "20.90 x 10^4 PFC-SRBC/spleen"}, {"measurement": "PFC-SRBC/spleen (average number of 5 mice/group)", "setting": "[1]; Mitomycin C (1.0 mg/kg) + Swainsonine 100 mg/kg i.p.", "value": "21.79 x 10^4 PFC-SRBC/spleen"}, {"measurement": "capacities to produce antibody against SRBC", "setting": "[1]; mice injected mitomycin C", "value": "restored the capacities"}, {"measurement": "growth of transplantable tumors", "setting": "[2]", "value": "inhibits growth"}, {"measurement": "PFC-SRBC/spleen (average number of 5 mice/group)", "setting": "[3]; ICR mice without tumor, Swainsonine 100 mg/kg i.p.", "value": "118.7 x 10^4 PFC-SRBC/spleen"}, {"measurement": "PFC-SRBC/spleen (average number of 5 mice/group)", "setting": "[3]; Tumor bearer (Sarcoma 180, ICR mice) + Swainsonine 100 mg/kg i.p., every day for five days", "value": "126.7 x 10^4 PFC-SRBC/spleen"}, {"measurement": "PFC-SRBC/spleen (average number of 5 mice/group)", "setting": "[3]; Tumor bearer + Swainsonine 3.7 mg/kg i.p.", "value": "61.6 x 10^4 PFC-SRBC/spleen"}, {"measurement": "PFC-SRBC/spleen (average number of 5 mice/group)", "setting": "[3]; Tumor bearer + Swainsonine 11 mg/kg i.p.", "value": "71.6 x 10^4 PFC-SRBC/spleen"}, {"measurement": "PFC-SRBC/spleen (average number of 5 mice/group)", "setting": "[3]; Tumor bearer + Swainsonine 33 mg/kg i.p.", "value": "123.5 x 10^4 PFC-SRBC/spleen"}, {"measurement": "capacities to produce antibody against SRBC", "setting": "[3]; tumor bearing mice", "value": "restored the capacities"}, {"measurement": "Thymus weight", "setting": "thymus; sample 5 mg/kg subcutaneously twice per day", "value": 73.0, "unit": "mg/mouse"}, {"measurement": "Thymus weight", "setting": "thymus; sample 15 mg/kg subcutaneously twice per day", "value": 78.8, "unit": "mg/mouse"}, {"measurement": "Thymus weight", "setting": "thymus; sample 50 mg/kg subcutaneously twice per day", "value": 72.4, "unit": "mg/mouse"}, {"measurement": "atrophy of thymus induced by dexamethasone", "setting": "thymus; mice", "value": "prevents"}, {"measurement": "PFC-SRBC/spleen (average number of 5 mice/group)", "setting": "[4]; BDF1 mice, Swainsonine 100 mg/kg/day intraperitoneally, alone (normal mice)", "value": "16.49 x 10^4 PFC-SRBC/spleen"}, {"measurement": "PFC-SRBC/spleen (average number of 5 mice/group)", "setting": "[4]; Immunosuppressive factor (0.3 ml/mouse/day) + Swainsonine 3.7 mg/kg i.p.", "value": "20.77 x 10^4 PFC-SRBC/spleen"}, {"measurement": "PFC-SRBC/spleen (average number of 5 mice/group)", "setting": "[4]; Immunosuppressive factor (0.3 ml/mouse/day) + Swainsonine 11 mg/kg i.p.", "value": "20.08 x 10^4 PFC-SRBC/spleen"}, {"measurement": "PFC-SRBC/spleen (average number of 5 mice/group)", "setting": "[4]; Immunosuppressive factor (0.3 ml/mouse/day) + Swainsonine 33 mg/kg i.p.", "value": "20.84 x 10^4 PFC-SRBC/spleen"}, {"measurement": "PFC-SRBC/spleen (average number of 5 mice/group)", "setting": "[4]; Immunosuppressive factor (0.3 ml/mouse/day) + Swainsonine 100 mg/kg i.p.", "value": "17.39 x 10^4 PFC-SRBC/spleen"}, {"measurement": "capacities to produce antibody against SRBC", "setting": "[4]; mice injected immunosuppressive factor, intraperitoneal administration", "value": "restored the capacities"}, {"measurement": "capacities to produce antibody against SRBC", "setting": "[4]; normal mice", "value": "did not enhance"}, {"measurement": "PFC-SRBC/spleen (average number of 5 mice/group)", "setting": "[5]; [7]", "value": "16.54 x 10^4 PFC-SRBC/spleen"}, {"measurement": "PFC-SRBC/spleen (average number of 5 mice/group)", "setting": "[5]; Cyclophosphamide (22.5 mg/kg) + Swainsonine 3 mg/kg i.p.", "value": "21.53 x 10^4 PFC-SRBC/spleen"}, {"measurement": "PFC-SRBC/spleen (average number of 5 mice/group)", "setting": "[5]; Cyclophosphamide (22.5 mg/kg) + Swainsonine 11 mg/kg i.p.", "value": "16.52 x 10^4 PFC-SRBC/spleen"}, {"measurement": "PFC-SRBC/spleen (average number of 5 mice/group)", "setting": "[5]; Cyclophosphamide (22.5 mg/kg) + Swainsonine 33 mg/kg i.p.", "value": "17.19 x 10^4 PFC-SRBC/spleen"}, {"measurement": "PFC-SRBC/spleen (average number of 5 mice/group)", "setting": "[5]; Cyclophosphamide (22.5 mg/kg) + Swainsonine 100 mg/kg i.p.", "value": "16.48 x 10^4 PFC-SRBC/spleen"}, {"measurement": "capacities to produce antibody against SRBC", "setting": "[5]; mice injected cyclophosphamide", "value": "restored the capacities"}, {"measurement": "^3H-thymidine uptake (cpm)", "setting": "[6]; MLC with immunosuppressive factor (3 µl) + swainsonine 0.00002 µg/well", "value": "10,449 cpm"}, {"measurement": "^3H-thymidine uptake (cpm)", "setting": "[6]; MLC with immunosuppressive factor (3 µl) + swainsonine 0.0002 µg/well", "value": "13,015 cpm"}, {"measurement": "^3H-thymidine uptake (cpm)", "setting": "[6]; MLC with immunosuppressive factor (3 µl) + swainsonine 0.002 µg/well", "value": "24,951 cpm"}, {"measurement": "^3H-thymidine uptake (cpm)", "setting": "[6]; MLC with immunosuppressive factor (3 µl) + swainsonine 0.02 µg/well", "value": "31,595 cpm"}, {"measurement": "^3H-thymidine uptake (cpm)", "setting": "[6]; MLC with immunosuppressive factor (3 µl) + swainsonine 0.2 µg/well", "value": "27,942 cpm"}, {"measurement": "^3H-thymidine uptake (cpm)", "setting": "[6]; MLC with immunosuppressive factor (3 µl) + swainsonine 2 µg/well", "value": "23,928 cpm"}, {"measurement": "^3H-thymidine uptake (cpm)", "setting": "[6]; MLC with immunosuppressive factor (5 µl) + swainsonine 0.00002 µg/well", "value": "3,737 cpm"}, {"measurement": "^3H-thymidine uptake (cpm)", "setting": "[6]; MLC with immunosuppressive factor (5 µl) + swainsonine 0.0002 µg/well", "value": "6,377 cpm"}, {"measurement": "^3H-thymidine uptake (cpm)", "setting": "[6]; MLC with immunosuppressive factor (5 µl) + swainsonine 0.002 µg/well", "value": "10,918 cpm"}, {"measurement": "^3H-thymidine uptake (cpm)", "setting": "[6]; MLC with immunosuppressive factor (5 µl) + swainsonine 0.02 µg/well", "value": "7,679 cpm"}, {"measurement": "^3H-thymidine uptake (cpm)", "setting": "[6]; MLC with immunosuppressive factor (5 µl) + swainsonine 0.2 µg/well", "value": "7,928 cpm"}, {"measurement": "^3H-thymidine uptake (cpm)", "setting": "[6]; MLC with immunosuppressive factor (5 µl) + swainsonine 2 µg/well", "value": "6,709 cpm"}, {"measurement": "^3H-thymidine uptake (cpm)", "setting": "[6]; MLC with swainsonine 0.00002 µg/well, no immunosuppressive factor", "value": "20,653 cpm"}, {"measurement": "^3H-thymidine uptake (cpm)", "setting": "[6]; MLC with swainsonine 0.0002 µg/well, no immunosuppressive factor", "value": "21,823 cpm"}, {"measurement": "^3H-thymidine uptake (cpm)", "setting": "[6]; MLC with swainsonine 0.002 µg/well, no immunosuppressive factor", "value": "29,688 cpm"}, {"measurement": "^3H-thymidine uptake (cpm)", "setting": "[6]; MLC with swainsonine 0.02 µg/well, no immunosuppressive factor", "value": "33,686 cpm"}, {"measurement": "^3H-thymidine uptake (cpm)", "setting": "[6]; MLC with swainsonine 0.2 µg/well, no immunosuppressive factor", "value": "38,077 cpm"}, {"measurement": "^3H-thymidine uptake (cpm)", "setting": "[6]; MLC with swainsonine 2 µg/well, no immunosuppressive factor", "value": "33,104 cpm"}, {"measurement": "inhibitory activity of immunosuppressive factor in MLC", "setting": "[6]; immunosuppressive factor incubated with swainsonine", "value": "the inhibitory activity was removed"}, {"measurement": "MLC-stimulated spleen cells ^3H-thymidine uptake", "setting": "[6]; swainsonine added to MLC", "value": "enhanced remarkably"}]}
